Results as given in ChEMBL document CHEMBL1201862, “PubChem BioAssay data set” (2004).
Activity calls are given as the source filed them.

Legend:
[1] = test system: BJ; assay: cytotoxicity toward BJ-TERT fibroblasts, dose response, cell-based, RAS-independent, luminescence (AID 1933); format: functional; conditions: Homo sapiens
[2] = test system: BJ; assay: cells; format: functional, cell-based; conditions: Homo sapiens
[3] = test system: BJ; assay: cytotoxicity toward BJ-TERT-LT-ST fibroblasts, dose response, cell-based, RAS-independent, luminescence (AID 1935); format: functional; conditions: Homo sapiens;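 further: BJ fibroblasts immortalized with TERT plus LT and ST oncogenes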
[4] = cytotoxicity toward DRD oncogenic fibroblasts, dose response, cell-based, non-viral oncogenic, luminescence (AID 1934); format: functional; conditions: Homo sapiens
[5] = target: T1, Short transient receptor potential channel 4 (Mus musculus, UniProt Q9QUQ5); assay: mouse TRPC4 channel inhibitors, dose response, cell-based, HEK293 TRPC4/mu-opioid, Fluo-4 calcium (AID 434942); format: functional;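 further: potency of inhibitors blocking the TRPC4 calcium response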
T1 sequence (Q9QUQ5 whole entry): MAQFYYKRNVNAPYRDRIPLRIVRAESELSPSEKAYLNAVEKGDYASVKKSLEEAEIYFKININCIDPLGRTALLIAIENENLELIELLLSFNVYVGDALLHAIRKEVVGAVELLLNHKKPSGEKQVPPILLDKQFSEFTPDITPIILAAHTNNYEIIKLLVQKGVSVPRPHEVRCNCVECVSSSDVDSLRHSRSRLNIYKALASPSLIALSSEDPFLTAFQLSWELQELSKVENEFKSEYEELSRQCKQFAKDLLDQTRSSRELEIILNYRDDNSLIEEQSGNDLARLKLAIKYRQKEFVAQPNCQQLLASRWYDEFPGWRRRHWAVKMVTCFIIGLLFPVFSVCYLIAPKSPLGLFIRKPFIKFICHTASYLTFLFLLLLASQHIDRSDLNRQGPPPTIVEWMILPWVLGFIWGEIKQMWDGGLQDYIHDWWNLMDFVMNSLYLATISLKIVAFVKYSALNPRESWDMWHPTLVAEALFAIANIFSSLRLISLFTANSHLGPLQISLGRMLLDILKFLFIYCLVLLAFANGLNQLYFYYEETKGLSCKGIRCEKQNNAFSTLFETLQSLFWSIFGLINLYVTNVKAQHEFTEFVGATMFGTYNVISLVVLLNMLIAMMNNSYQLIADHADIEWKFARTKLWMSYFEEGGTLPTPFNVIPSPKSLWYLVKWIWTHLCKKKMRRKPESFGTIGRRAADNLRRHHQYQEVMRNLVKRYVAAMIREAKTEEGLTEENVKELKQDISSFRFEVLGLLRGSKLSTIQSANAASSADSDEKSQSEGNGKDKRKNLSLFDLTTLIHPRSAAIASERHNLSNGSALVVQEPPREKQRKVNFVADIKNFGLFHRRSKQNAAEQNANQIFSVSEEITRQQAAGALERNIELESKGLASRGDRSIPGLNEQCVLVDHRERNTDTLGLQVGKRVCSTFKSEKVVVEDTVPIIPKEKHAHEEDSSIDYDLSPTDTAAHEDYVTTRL

[6] = test system: BJ; assay: cytotoxicity toward Ras-transformed BJeLR fibroblasts, dose response, cell-based, alamar blue fluorescence, cherrypicked samples (AID 2631); format: functional; conditions: Homo sapiens;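 further: confirmatory dose-response assay in RAS-dependent BJ fibroblasts engineered with TERT, LT and ST, with cytotoxicity read by fluorescence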
[7] = target: Transthyretin (Homo sapiens, UniProt P02766); assay: Luminescence-based cell-based high throughput dose response assay to identify activators of Transthyretin (TTR) transcription.; format: functional
[8] = NIH-3T3 fibroblast cytotoxicity, dose response, cytotoxicity control, cell-based, fluorescence, Alamar Blue, secondary assay (AID 2327); format: functional;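 further: NIH-3T3 mouse fibroblasts cultured with fluconazole at 8 µg/mL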
[9] = C. albicans growth with fluconazole, confirmation, fluorescence, retest (AID 2467); format: functional, cell-based
[10] = target: Large T antigen (Simian virus 40, UniProt P03070); format: functional, Betapolyomavirus macacae;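 further: Confirmatory-stage PubChem screen for compounds that inhibit SV40 T antigen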
[11] = target: Bifunctional protein GlmU (Mycobacterium tuberculosis, UniProt P9WMN3); assay: Inhibitors of Mycobacterial Glucosamine-1-phosphate acetyl transferase (GlmU). Secondary screen.; design: species or system Mycobacterium tuberculosis H37Rv
[12] = target: Genome polyprotein (dengue virus type 2, UniProt P29990); assay: Dengue-2 NS5 methyltransferase inhibitors, primary screen, biochemical, confirmation dose response (AID 588689); format: functional
[13] = target: T2, Carboxy-terminal domain RNA polymerase II polypeptide A small phosphatase 1 (Homo sapiens, UniProt Q9GZU7); assay: inhibitors of CTDSP1, concentration-response testing, biochemical assay, absorbance-based, actives from ultra-high-throughput screening (AID 540297); format: functional
T2 sequence (Q9GZU7 whole entry): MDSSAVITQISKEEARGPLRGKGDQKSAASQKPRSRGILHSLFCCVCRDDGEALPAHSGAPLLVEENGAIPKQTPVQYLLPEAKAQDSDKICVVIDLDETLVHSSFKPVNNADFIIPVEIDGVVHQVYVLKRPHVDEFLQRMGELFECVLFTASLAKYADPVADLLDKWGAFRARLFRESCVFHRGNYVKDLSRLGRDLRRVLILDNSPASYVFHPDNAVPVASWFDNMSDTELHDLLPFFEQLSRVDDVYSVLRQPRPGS

[14] = target: Long-chain-fatty-acid--AMP ligase FadD28 (Mycobacterium tuberculosis, UniProt P9WQ59); assay: Fluorescence polarization aasay to screen for inhibitors that compete for the binding of FadD28 to a bisubstrate Measured in Biochemical System Using Plate Reader - 2147-01_Inhibitor_Dose_CherryPick_Activity.; format: functional, Mycobacterium tuberculosis H37Rv
[15] = target: T3, Histone-lysine N-methyltransferase NSD2 (Homo sapiens, UniProt O96028); format: biochemical
T3 sequence (O96028 whole entry): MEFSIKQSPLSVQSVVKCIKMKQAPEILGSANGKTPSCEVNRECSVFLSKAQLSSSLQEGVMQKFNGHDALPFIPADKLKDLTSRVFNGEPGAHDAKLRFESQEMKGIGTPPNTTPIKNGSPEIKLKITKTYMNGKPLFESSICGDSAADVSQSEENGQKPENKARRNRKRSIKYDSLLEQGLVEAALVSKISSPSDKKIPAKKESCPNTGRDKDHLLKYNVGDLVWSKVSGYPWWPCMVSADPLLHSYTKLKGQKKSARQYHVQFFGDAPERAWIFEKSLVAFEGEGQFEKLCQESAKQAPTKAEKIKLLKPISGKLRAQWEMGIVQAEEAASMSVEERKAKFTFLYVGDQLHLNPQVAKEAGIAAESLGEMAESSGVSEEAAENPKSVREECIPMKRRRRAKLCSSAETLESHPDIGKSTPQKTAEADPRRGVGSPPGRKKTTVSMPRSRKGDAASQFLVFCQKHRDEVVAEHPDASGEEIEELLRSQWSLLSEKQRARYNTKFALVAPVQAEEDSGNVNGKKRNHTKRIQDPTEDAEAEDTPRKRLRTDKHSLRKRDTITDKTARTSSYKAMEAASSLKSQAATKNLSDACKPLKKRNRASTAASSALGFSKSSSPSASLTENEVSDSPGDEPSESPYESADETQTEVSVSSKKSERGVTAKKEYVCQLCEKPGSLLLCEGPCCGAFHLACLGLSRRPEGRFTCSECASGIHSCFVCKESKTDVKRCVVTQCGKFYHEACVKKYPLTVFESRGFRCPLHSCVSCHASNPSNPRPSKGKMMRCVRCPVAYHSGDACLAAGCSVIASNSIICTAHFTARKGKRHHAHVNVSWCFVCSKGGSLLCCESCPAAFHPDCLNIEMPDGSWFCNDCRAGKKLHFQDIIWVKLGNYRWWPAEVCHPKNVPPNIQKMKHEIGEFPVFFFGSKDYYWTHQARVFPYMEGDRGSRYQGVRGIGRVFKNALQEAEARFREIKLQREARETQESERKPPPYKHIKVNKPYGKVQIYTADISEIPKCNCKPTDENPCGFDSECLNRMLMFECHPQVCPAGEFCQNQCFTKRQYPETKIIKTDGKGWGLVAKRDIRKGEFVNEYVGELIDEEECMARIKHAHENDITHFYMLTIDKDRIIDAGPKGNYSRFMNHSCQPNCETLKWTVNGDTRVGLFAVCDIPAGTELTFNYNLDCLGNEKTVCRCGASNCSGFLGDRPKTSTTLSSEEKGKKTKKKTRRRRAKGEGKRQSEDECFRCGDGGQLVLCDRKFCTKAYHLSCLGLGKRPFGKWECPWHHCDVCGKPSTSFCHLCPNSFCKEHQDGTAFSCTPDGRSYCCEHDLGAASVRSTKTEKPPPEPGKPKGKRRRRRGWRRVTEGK

[16] = test system: INS1; assay: beta cell apoptosis inhibitors, cytokine rescue, dose response, luminescence, retest (AID 449756); format: functional, cell-based; conditions: Rattus norvegicus;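 further: cell death triggered by IL-1 beta plus TNF-alpha plus IFN-gamma mixture; protective hits raise ATP signal compared with cytokine alone wells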
[17] = target: T4, DNA repair and recombination protein RAD54-like (Homo sapiens, UniProt Q92698); assay: inhibitors of human RAD54 branch migration, confirmation, biochemical, fluorescence, cherry-picked samples, dose series (AID 651657); format: functional
T4 sequence (Q92698 whole entry): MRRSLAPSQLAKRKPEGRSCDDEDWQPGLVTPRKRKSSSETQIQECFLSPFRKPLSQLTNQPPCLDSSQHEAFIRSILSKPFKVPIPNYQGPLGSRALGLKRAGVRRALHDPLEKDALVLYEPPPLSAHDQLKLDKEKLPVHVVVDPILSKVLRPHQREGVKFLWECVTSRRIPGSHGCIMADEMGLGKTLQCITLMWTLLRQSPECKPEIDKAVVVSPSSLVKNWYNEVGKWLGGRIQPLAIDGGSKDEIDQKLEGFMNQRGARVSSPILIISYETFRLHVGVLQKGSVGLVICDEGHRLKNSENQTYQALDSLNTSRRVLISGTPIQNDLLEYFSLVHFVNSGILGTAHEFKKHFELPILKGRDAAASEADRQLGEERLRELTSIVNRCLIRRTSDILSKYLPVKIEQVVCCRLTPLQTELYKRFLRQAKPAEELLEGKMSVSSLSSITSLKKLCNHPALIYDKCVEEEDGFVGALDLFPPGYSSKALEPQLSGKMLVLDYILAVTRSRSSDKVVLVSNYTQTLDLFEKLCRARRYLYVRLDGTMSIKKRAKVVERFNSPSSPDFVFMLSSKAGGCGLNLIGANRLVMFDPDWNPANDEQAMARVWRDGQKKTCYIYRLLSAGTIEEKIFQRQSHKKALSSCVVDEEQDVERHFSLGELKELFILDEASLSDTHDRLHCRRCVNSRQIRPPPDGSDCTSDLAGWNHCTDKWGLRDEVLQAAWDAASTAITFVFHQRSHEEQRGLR

[18] = target: T5, DNA repair protein RAD52 homolog (Homo sapiens, UniProt P43351); format: functional, biochemical
T5 sequence (P43351 whole entry): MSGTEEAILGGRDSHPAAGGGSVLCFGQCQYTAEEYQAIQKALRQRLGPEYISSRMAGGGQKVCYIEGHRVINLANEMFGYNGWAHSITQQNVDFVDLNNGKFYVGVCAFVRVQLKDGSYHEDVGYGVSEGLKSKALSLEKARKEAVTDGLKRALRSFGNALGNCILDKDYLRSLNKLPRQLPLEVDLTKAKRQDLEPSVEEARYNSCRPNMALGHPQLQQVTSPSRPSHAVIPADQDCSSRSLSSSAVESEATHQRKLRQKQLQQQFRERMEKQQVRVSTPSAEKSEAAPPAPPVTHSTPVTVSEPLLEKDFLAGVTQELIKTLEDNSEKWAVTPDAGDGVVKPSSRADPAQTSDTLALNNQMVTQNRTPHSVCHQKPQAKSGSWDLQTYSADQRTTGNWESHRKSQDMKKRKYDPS

[19] = target: Glyceraldehyde-3-phosphate dehydrogenase (Homo sapiens, UniProt P04406)
[20] = target: Mitogen-activated protein kinase 10 (Homo sapiens, UniProt P53779); assay: Dose response biochemical screening assay for inhibitors of c-Jun N-Terminal Kinase 3 (JNK3). [Related pubchem assays: 746 ]
[21] = target: T6, Alkaline phosphatase, tissue-nonspecific isozyme (Homo sapiens, UniProt P05186); assay: human TNAP enzyme inhibitors, SAR follow-up, biochemical, luminescent, dose response (AID 1056)
T6 sequence (P05186 whole entry): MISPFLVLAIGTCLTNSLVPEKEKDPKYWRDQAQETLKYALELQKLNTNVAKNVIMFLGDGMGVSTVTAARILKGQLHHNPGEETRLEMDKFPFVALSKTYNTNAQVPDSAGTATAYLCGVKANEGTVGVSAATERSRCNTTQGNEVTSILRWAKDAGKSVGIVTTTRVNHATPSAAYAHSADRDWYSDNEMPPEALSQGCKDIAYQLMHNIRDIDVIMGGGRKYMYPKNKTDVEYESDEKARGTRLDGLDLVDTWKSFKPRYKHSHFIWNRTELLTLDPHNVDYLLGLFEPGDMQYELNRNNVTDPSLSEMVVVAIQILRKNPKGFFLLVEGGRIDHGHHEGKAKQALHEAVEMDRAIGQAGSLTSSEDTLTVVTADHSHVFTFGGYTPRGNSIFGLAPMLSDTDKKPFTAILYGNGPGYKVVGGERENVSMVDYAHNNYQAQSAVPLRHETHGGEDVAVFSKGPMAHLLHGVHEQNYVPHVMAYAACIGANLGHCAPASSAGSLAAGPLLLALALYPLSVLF

[22] = inhibitors of intracellular T. cruzi replication, confirmation, NIH3T3 host cells, beta-gal luminescence (AID 2044); format: functional, cell-based;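 further: intracellular parasites grown in NIH/3T3 mouse fibroblasts as host cells; luminescent beta-galactosidase reporter signal from transgenic T. cruzi replicating inside host cells; inhibitors lower the luminescence signal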
[23] = cytotoxicity toward NIH3T3 fibroblasts, dose response, counter-screen, cell-based, ATP luminescence, mouse fibroblasts (AID 2010); format: functional;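 further: cells exposed to compound for about 90 hours before reading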
[24] = THP-1 cell cytotoxicity, dose response, cytotoxicity control for Vif-APOBEC3G degradation inhibitor project, THP-1 cells (AID 1117359); format: functional; conditions: Human immunodeficiency virus 1, THP-1

Sequence of Large T antigen (P03070 whole entry): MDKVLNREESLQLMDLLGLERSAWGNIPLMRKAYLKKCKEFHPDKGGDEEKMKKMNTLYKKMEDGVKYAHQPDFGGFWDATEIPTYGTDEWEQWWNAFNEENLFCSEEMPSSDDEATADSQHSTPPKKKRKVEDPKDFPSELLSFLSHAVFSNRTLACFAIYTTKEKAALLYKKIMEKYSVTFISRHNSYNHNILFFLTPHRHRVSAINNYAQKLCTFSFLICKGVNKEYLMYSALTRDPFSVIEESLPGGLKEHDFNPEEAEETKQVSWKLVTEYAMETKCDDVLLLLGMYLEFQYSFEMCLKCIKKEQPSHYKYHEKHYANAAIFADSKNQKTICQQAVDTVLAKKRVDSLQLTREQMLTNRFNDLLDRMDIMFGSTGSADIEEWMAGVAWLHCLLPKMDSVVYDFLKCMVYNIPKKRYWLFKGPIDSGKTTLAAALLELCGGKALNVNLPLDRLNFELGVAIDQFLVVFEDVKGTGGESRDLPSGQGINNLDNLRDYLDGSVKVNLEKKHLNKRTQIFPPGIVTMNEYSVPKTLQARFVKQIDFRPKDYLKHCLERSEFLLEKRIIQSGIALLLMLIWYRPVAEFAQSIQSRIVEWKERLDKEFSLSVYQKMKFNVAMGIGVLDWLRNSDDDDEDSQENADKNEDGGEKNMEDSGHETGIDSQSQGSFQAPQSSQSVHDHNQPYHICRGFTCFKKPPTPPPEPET
Sequence of Bifunctional protein GlmU (P9WMN3 whole entry): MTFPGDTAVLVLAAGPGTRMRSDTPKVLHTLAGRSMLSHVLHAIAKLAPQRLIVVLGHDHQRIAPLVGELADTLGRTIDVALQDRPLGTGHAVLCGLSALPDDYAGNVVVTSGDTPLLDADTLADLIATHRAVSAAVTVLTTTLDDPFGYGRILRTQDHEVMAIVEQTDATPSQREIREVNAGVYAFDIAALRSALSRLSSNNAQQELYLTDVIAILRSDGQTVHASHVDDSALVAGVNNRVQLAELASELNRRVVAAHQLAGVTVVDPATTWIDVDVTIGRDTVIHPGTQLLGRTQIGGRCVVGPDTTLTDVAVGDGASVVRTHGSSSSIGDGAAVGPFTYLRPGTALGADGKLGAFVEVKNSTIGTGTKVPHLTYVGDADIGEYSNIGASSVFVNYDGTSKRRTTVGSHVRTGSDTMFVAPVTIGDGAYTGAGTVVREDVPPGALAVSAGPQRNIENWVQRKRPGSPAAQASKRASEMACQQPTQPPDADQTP
Sequence of Genome polyprotein (P29990 2492-3391 limits assumed): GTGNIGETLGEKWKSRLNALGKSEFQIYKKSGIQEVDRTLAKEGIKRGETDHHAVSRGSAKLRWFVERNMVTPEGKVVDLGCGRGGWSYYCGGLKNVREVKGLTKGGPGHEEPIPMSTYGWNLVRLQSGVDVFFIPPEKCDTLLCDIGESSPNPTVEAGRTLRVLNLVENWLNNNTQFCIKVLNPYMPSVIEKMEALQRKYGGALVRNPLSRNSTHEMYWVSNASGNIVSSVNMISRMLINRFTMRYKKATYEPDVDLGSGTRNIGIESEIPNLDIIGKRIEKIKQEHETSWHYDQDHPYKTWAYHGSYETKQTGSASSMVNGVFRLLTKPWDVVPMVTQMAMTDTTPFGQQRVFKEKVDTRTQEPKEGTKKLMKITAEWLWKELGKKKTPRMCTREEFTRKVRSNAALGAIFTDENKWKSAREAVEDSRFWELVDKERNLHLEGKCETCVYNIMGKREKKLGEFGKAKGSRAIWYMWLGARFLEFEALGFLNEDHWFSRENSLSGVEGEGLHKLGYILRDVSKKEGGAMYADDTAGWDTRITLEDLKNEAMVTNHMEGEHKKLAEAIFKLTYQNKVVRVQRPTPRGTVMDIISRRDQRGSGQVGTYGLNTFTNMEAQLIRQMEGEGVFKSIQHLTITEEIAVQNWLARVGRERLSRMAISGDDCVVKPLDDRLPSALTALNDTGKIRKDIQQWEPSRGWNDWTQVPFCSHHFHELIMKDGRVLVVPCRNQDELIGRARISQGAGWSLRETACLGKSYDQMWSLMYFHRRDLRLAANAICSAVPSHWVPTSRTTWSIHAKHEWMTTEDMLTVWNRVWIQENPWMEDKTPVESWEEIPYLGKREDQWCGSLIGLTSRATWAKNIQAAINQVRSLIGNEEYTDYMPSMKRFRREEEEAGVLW
Sequence of Mitogen-activated protein kinase 10 (P53779 whole entry): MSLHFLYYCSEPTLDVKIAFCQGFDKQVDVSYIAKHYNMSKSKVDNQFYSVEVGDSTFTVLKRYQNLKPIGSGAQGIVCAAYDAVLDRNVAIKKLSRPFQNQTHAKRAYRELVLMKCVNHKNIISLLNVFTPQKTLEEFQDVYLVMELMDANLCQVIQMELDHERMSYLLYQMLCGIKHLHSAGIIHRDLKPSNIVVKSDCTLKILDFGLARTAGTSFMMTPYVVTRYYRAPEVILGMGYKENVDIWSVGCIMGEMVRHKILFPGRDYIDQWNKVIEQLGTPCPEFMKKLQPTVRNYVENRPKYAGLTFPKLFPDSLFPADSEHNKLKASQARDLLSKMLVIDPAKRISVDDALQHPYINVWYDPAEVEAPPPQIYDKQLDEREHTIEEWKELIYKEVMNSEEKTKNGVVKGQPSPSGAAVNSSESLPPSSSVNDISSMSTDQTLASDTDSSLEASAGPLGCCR
Sequence of Long-chain-fatty-acid--AMP ligase FadD28 (P9WQ59 whole entry): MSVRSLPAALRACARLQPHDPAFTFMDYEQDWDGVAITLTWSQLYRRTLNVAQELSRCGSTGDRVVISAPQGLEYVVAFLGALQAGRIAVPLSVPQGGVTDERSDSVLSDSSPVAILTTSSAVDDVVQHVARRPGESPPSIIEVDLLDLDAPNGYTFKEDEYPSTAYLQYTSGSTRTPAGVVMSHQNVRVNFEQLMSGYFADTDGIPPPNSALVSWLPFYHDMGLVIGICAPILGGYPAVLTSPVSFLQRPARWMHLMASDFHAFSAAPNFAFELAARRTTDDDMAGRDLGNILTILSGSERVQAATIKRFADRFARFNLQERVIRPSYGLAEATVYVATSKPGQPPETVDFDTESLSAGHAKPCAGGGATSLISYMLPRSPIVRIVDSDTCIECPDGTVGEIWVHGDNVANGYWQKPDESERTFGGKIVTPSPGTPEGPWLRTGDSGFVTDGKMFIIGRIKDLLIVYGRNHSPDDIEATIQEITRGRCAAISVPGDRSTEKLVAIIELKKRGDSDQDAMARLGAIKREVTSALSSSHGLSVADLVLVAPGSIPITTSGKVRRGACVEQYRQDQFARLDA
Sequence of Glyceraldehyde-3-phosphate dehydrogenase (P04406 whole entry): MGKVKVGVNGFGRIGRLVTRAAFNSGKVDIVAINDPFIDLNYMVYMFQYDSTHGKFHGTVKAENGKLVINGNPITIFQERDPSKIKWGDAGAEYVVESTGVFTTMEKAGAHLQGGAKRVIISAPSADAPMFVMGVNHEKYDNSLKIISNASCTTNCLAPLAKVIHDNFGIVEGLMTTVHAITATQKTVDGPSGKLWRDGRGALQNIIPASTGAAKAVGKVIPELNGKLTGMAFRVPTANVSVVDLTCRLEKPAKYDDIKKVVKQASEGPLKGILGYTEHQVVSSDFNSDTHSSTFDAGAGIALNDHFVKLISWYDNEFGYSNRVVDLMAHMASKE

Compound: CN(C)CC(CCC(CN(C)C)C(O)(c1ccccc1)c1ccccc1)C(O)(c1ccccc1)c1ccccc1 (stereo not given)
- EC50 [1]: 4.97 µM (inconclusive)
- EC50 [2]: 11.6 µM (active)
- EC50 [3]: 5.82 µM (inconclusive)
- EC50 [4]: 5.81 µM (active)
- EC50 [5]: 1.68 µM (active)
- EC50 [6]: 2.13 µM (active)
- EC50 [7]: > 167 µM (inactive)

Compound: Cc1cccc(N2NC(=O)/C(=C/c3ccc(-c4ccc(Cl)c(C(=O)O)c4)o3)C2=O)c1
- EC50 [8]: > 150 µM (inactive)
- EC50 [9]: > 38 µM (not active)
- IC50 [10]: 22.3 µM (active)
- IC50 [11]: 122 µM (active)
- IC50 [12]: 22.5 µM (active)
- IC50 [13]: 3.84 µM (active)
- AC50 [14]: > 100 µM (inactive)
- AC50 [15]: > 20 µM (inactive)

Compound: COc1ccc(CCNc2c3ccccc3nc3ccccc23)cc1OC
- AC50 [16]: 4.5 µM (active)
- AC50 [17]: 7.87 µM (active)
- AC50 [18]: 6.38 µM (active)
- EC50 [7]: > 167 µM (inactive)

Compound: c1ccc(-c2[nH]nc3ccccc23)cc1
- IC50 [19]: > 10 µM (inconclusive)
- IC50 [20]: 2.34 µM (active)
- IC50 [21]: 3.53 µM (active)

Compound: O=[N+]([O-])c1ccc(/C=N/Nc2nc(N3CCCC3)nc(N3CCCC3)n2)o1
- EC50 [22]: 0.563 µM (active)
- EC50 [23]: > 60 µM (not active)
- CC50 [24]: > 40 µM (active)
